Data published in patent US20250312349A1, “COMPOSITION AND METHODS OF TREATING INTRACELLULAR PATHOGEN INFECTION” (UNIVERSITY HOSPITALS CLEVELAND MEDICAL CENTER, priority 2024, published 2025).

How the values were obtained:
Lek and Fyn in T cells = conditions: cited from earlier work
T. gondii [1] = conditions: mice with ocular and cerebral toxoplasmosis, dependent on Beclin 1; cited from earlier work
T. gondii [2] = test: In vitro infection of mammalian cells with T. gondii tachyzoites, counted by light microscopy; assay type: cell-based, Toxoplasma gondii; conditions: CHO cells, 0.3 μM or 1 μM, 2 or 24 hours
Procedure: Chinese Hamster Ovary (CHO; a gift from Cathleen Carlin, Case Western Reserve University), human retinal pigment epithelial (RPE) cells (ARPE-19; American Type Culture Collection, ATCC, Manassas, VA), and mouse endothelial […]) transduced with Src shRNA or control encoding lentiviral vectors were cultured in complete media. Mouse brain endothelial cells expressing WT or DN EGFR were isolated as described. Endothelial cells were cultured in medium containing Endothelial Cell Growth Supplement (ECGS; Sigma-Aldrich, St Louis, MO). Mammalian cells were infected with tachyzoites of the RH or PTG stains of T. gondii; RH strain was used unless otherwise indicated. Cells were fixed at 2 hours or 24 hours followed by staining using Hema 3 Manual Staining System (Fisherbrand, Hampton, NH). At least 100 to 200 cells per monolayer were counted by examining a minimum of 5 random areas per monolayer. The percentage of infected cells, tachyzoites and vacuoles per 100 cells, and tachyzoites per vacuole were counted using light microscopy. Three independent experiments were performed. Saracatinib, Gefitinib (LC Laboratories, Woburn, MA) and lysosomal inhibitors leupeptin and pepstatin (10 μM; Millipore Sigma, Burlington, MA) were used in specified experiments. Each cell monolayer was generated and infected independently.

Cc1nc(Nc2ncc(C(=O)Nc3c(C)cccc3Cl)s2)cc(N2CCN(CCO)CC2)n1.O [Dasatinib, N-(2-chloro-6-methylphenyl)-2-[[6-[4-(2-hydroxyethyl)-1-piperazinyl]-2-methyl-4-pyrimidinyl]amino]-5-thiazole carboxamide monohydrate]
IFN-γ production by T cells (Lek and Fyn in T cells): impaired
activity of Lek and Fyn in T cells (Lek and Fyn in T cells): reduced

COc1cc2ncnc(Nc3ccc(F)c(Cl)c3)c2cc1OCCCN1CCOCC1 [Gefitinib]
parasite load and histopathology in the eye and brain (T. gondii [1]): partial reduction

Cc1ccc(NC(=O)c2ccc(CN3CCN(C)CC3)cc2)cc1Nc1nccc(-c2cccnc2)n1 [Imatinib]
parasite survival (infected cells, tachyzoites per 100 cells) (T. gondii [2]): No significant difference
